# From ChEMBL document CHEMBL4295262, “Evaluation of the utility of stem-cell derived cardiomyocytes for drug proarrhythmic potential” (2019)
# How the values were obtained:
# Settings in all cases: human, ipsc-cm
# [1] = (§1) Electrical activity assay on cell lines treated with a given drug. DMSO was used as a vehicle and a control, unblinded dofetilide was used as a control.
# [2] = as §1; format: ADME, cell-based; design: FPDc: unit not given here
# [3] = as §1; remark: listed apart in the source
# [4] = as §1; format: ADME, cell-based
# [5] = as §1; format: ADME, cell-based; remark: listed apart in the source
# [6] = as §1; remark: listed apart in the source
# [7] = 0.03 µM, concentration (um) 0.03 uM
# [8] = 0.1 µM, concentration (um) 0.1 uM
# [9] = 10 µM, concentration (um) 10 uM
# [10] = 100 µM, concentration (um) 100 uM
# [11] = 0.09507 µM, concentration (um) 0.0950736 uM
# [12] = 0.3004 µM, concentration (um) 0.300433 uM
# [13] = 0.9494 µM, concentration (um) 0.949367 uM
# [14] = 0.01 µM, concentration (um) 0.01 uM
smiles,measurement,setting,value
Cc1nccn1CC1CCc2c(c3ccccc3n2C)C1=O (centres undefined) [ONDANSETRON],FPD measurement,[1]; 0.03 µM,54.59 FPDc
same,FPDc,[1]; 0.03 µM,54.59
same,FPD measurement,[1]; 0.3 µM,58.58 FPDc
same,FPDc,[1]; 0.3 µM,58.58
same,FPD measurement,[1]; 3 µM,68.22 FPDc
same,FPDc,[1]; 3 µM,68.22
same,FPD measurement,[1]; 30 µM,More Than Half The Wells Had A Quiescence Event Or Fpdc Readings Of 0
same,FPDc,[1]; 30 µM,More Than Half The Wells Had A Quiescence Event Or Fpdc Readings Of 0
same,FPD measurement,[2]; [7],5 Values Out Of 5 Were Excluded Due To Quiescence Or 0 Apdc
same,FPDc,[2]; [7],29.28
same,FPDc,"[2]; 0.3 µM, concentration (um) 0.3 uM",58.03
same,FPDc,"[2]; 3 µM, concentration (um) 3 uM",37.01
same,FPDc,"[2]; 30 µM, concentration (um) 30 uM",17.75
same,FPD measurement,[3]; 0.03 µM,1 Values Out Of 1 Were Excluded Due To Quiescence Or 0 Fpdc
same,FPDc,[3]; 0.03 µM,1 Values Out Of 1 Were Excluded Due To Quiescence Or 0 Fpdc
same,FPD measurement,[3]; 0.3 µM,1 Values Out Of 1 Were Excluded Due To Quiescence Or 0 Fpdc
same,FPDc,[3]; 0.3 µM,1 Values Out Of 1 Were Excluded Due To Quiescence Or 0 Fpdc
same,FPD measurement,[3]; 3 µM,1 Values Out Of 1 Were Excluded Due To Quiescence Or 0 Fpdc
same,FPDc,[3]; 3 µM,1 Values Out Of 1 Were Excluded Due To Quiescence Or 0 Fpdc
same,FPD measurement,[3]; 30 µM,1 Values Out Of 1 Were Excluded Due To Quiescence Or 0 Fpdc
same,FPDc,[3]; 30 µM,1 Values Out Of 1 Were Excluded Due To Quiescence Or 0 Fpdc
COc1ccccc1OCC(O)CN1CCN(CC(=O)Nc2c(C)cccc2C)CC1 (centres undefined) [RANOLAZINE],FPD measurement,[4]; [8],51.73 FPDc
same,FPDc,[4]; [8],6 Values Out Of 6 Were Excluded Due To Quiescence Or 0 Fpdc
same,FPD measurement,"[4]; 1 µM, concentration (um) 1 uM",54.52 FPDc
same,FPDc,"[4]; 1 µM, concentration (um) 1 uM",6 Values Out Of 6 Were Excluded Due To Quiescence Or 0 Fpdc
same,FPD measurement,[4]; [9],75.35 FPDc
same,FPDc,[4]; [9],6 Values Out Of 6 Were Excluded Due To Quiescence Or 0 Fpdc
same,FPDc,[4]; [10],6 Values Out Of 6 Were Excluded Due To Quiescence Or 0 Fpdc
same,FPD measurement,[5]; [8],5 Values Out Of 5 Were Excluded Due To Quiescence Or 0 Apdc
same,FPDc,[5]; [8],23.9
same,FPD measurement,"[5]; 1 µM, concentration (um) 1 uM",5 Values Out Of 5 Were Excluded Due To Quiescence Or 0 Apdc
same,FPDc,"[5]; 1 µM, concentration (um) 1 uM",22.6
same,FPD measurement,[5]; [9],5 Values Out Of 5 Were Excluded Due To Quiescence Or 0 Apdc
same,FPDc,[5]; [9],23.41
same,FPD measurement,[5]; [10],More Than Half The Wells Had A Quiescence Event Or Apdc Readings Of 0
same,FPDc,[5]; [10],More Than Half The Wells Had A Quiescence Event Or Fpdc Readings Of 0
same,FPDc,[2]; [8],63.44
same,FPD measurement,"[2]; 1 µM, concentration (um) 1 uM",5 Values Out Of 5 Were Excluded Due To Quiescence Or 0 Apdc
same,FPDc,"[2]; 1 µM, concentration (um) 1 uM",57.19
same,FPDc,[2]; [9],48.79
same,FPDc,[2]; [10],47.75
same,APDc,[6]; 0.1 µM,65.99
same,FPD measurement,[6]; 0.1 µM,65.99 FPDc
same,APDc,[6]; 1 µM,53.66
same,FPD measurement,[6]; 1 µM,53.66 FPDc
same,APDc,[6]; 10 µM,57.23
same,FPD measurement,[6]; 10 µM,57.23 FPDc
same,APDc,[6]; 100 µM,60.49
same,FPD measurement,[6]; 100 µM,60.49 FPDc
CC(C)NCC(O)c1ccc(NS(C)(=O)=O)cc1 (centres undefined) [SOTALOL],FPD measurement,[4]; [8],50.96 FPDc
same,FPDc,[4]; [8],6 Values Out Of 6 Were Excluded Due To Quiescence Or 0 Fpdc
same,FPD measurement,"[4]; 1 µM, concentration (um) 1 uM",54.95 FPDc
same,FPDc,"[4]; 1 µM, concentration (um) 1 uM",6 Values Out Of 6 Were Excluded Due To Quiescence Or 0 Fpdc
same,FPD measurement,[4]; [9],164 FPDc
same,FPDc,[4]; [9],6 Values Out Of 6 Were Excluded Due To Quiescence Or 0 Fpdc
same,FPDc,[4]; [10],6 Values Out Of 6 Were Excluded Due To Quiescence Or 0 Fpdc
same,FPD measurement,[5]; [8],5 Values Out Of 5 Were Excluded Due To Quiescence Or 0 Apdc
same,FPDc,[5]; [8],22.36
same,FPD measurement,"[5]; 1 µM, concentration (um) 1 uM",5 Values Out Of 5 Were Excluded Due To Quiescence Or 0 Apdc
same,FPDc,"[5]; 1 µM, concentration (um) 1 uM",20.88
same,FPD measurement,[5]; [9],5 Values Out Of 5 Were Excluded Due To Quiescence Or 0 Apdc
same,FPDc,[5]; [9],24.73
same,FPD measurement,[5]; [10],More Than Half The Wells Had A Quiescence Event Or Apdc Readings Of 0
same,FPDc,[5]; [10],More Than Half The Wells Had A Quiescence Event Or Fpdc Readings Of 0
same,FPD measurement,[2]; [8],5 Values Out Of 5 Were Excluded Due To Quiescence Or 0 Apdc
same,FPDc,[2]; [8],44.43
same,FPD measurement,"[2]; 1 µM, concentration (um) 1 uM",5 Values Out Of 5 Were Excluded Due To Quiescence Or 0 Apdc
same,FPDc,"[2]; 1 µM, concentration (um) 1 uM",41.07
same,FPD measurement,[2]; [9],5 Values Out Of 5 Were Excluded Due To Quiescence Or 0 Apdc
same,FPDc,[2]; [9],57.04
same,FPD measurement,[2]; [10],5 Values Out Of 5 Were Excluded Due To Quiescence Or 0 Apdc
same,FPDc,[2]; [10],45.01
same,APDc,[6]; 0.1 µM,62.02
same,FPD measurement,[6]; 0.1 µM,62.02 FPDc
same,APDc,[6]; 1 µM,63.35
same,FPD measurement,[6]; 1 µM,63.35 FPDc
same,APDc,[6]; 10 µM,71.54
same,FPD measurement,[6]; 10 µM,71.54 FPDc
same,APDc,[6]; 100 µM,79.39
same,FPD measurement,[6]; 100 µM,79.39 FPDc
CC/C(=C(\c1ccccc1)c1ccc(OCCN(C)C)cc1)c1ccccc1 [TAMOXIFEN],FPD measurement,[4]; [11],46.23 FPDc
same,FPDc,[4]; [11],6 Values Out Of 6 Were Excluded Due To Quiescence Or 0 Fpdc
same,FPD measurement,[4]; [12],47.89 FPDc
same,FPDc,[4]; [12],6 Values Out Of 6 Were Excluded Due To Quiescence Or 0 Fpdc
same,FPD measurement,[4]; [13],110.7 FPDc
same,FPDc,[4]; [13],6 Values Out Of 6 Were Excluded Due To Quiescence Or 0 Fpdc
same,FPDc,"[4]; 3 µM, concentration (um) 3 uM",6 Values Out Of 6 Were Excluded Due To Quiescence Or 0 Fpdc
same,FPD measurement,[5]; [11],5 Values Out Of 5 Were Excluded Due To Quiescence Or 0 Apdc
same,FPDc,[5]; [11],19.16
same,FPD measurement,[5]; [12],5 Values Out Of 5 Were Excluded Due To Quiescence Or 0 Apdc
same,FPDc,[5]; [12],19.98
same,FPD measurement,[5]; [13],5 Values Out Of 5 Were Excluded Due To Quiescence Or 0 Apdc
same,FPDc,[5]; [13],19.22
same,FPD measurement,"[5]; 3 µM, concentration (um) 3 uM",5 Values Out Of 5 Were Excluded Due To Quiescence Or 0 Apdc
same,FPDc,"[5]; 3 µM, concentration (um) 3 uM",16.9
same,FPD measurement,[2]; [11],5 Values Out Of 5 Were Excluded Due To Quiescence Or 0 Apdc
same,FPDc,[2]; [11],53.17
same,FPD measurement,[2]; [12],5 Values Out Of 5 Were Excluded Due To Quiescence Or 0 Apdc
same,FPDc,[2]; [12],49.96
same,FPD measurement,[2]; [13],5 Values Out Of 5 Were Excluded Due To Quiescence Or 0 Apdc
same,FPDc,[2]; [13],53.33
same,FPD measurement,"[2]; 3 µM, concentration (um) 3 uM",5 Values Out Of 5 Were Excluded Due To Quiescence Or 0 Apdc
same,FPDc,"[2]; 3 µM, concentration (um) 3 uM",51.88
COc1cc2c(Nc3ccc(Br)cc3F)ncnc2cc1OCC1CCN(C)CC1 [VANDETANIB],FPD measurement,[4]; [14],50.93 FPDc
same,FPDc,[4]; [14],6 Values Out Of 6 Were Excluded Due To Quiescence Or 0 Fpdc
same,FPD measurement,[4]; [8],55.37 FPDc
same,FPDc,[4]; [8],6 Values Out Of 6 Were Excluded Due To Quiescence Or 0 Fpdc
same,FPD measurement,"[4]; 1 µM, concentration (um) 1 uM",118.9 FPDc
same,FPDc,"[4]; 1 µM, concentration (um) 1 uM",6 Values Out Of 6 Were Excluded Due To Quiescence Or 0 Fpdc
same,FPDc,[4]; [9],6 Values Out Of 6 Were Excluded Due To Quiescence Or 0 Fpdc
same,FPD measurement,[5]; [14],5 Values Out Of 5 Were Excluded Due To Quiescence Or 0 Apdc
same,FPDc,[5]; [14],21.62
same,FPD measurement,[5]; [8],5 Values Out Of 5 Were Excluded Due To Quiescence Or 0 Apdc
same,FPDc,[5]; [8],20.73
same,FPD measurement,"[5]; 1 µM, concentration (um) 1 uM",5 Values Out Of 5 Were Excluded Due To Quiescence Or 0 Apdc
same,FPDc,"[5]; 1 µM, concentration (um) 1 uM",22.97
same,FPD measurement,[5]; [9],5 Values Out Of 5 Were Excluded Due To Quiescence Or 0 Apdc
same,FPDc,[5]; [9],5 Values Out Of 5 Were Excluded Due To Quiescence Or 0 Fpdc
same,FPD measurement,[2]; [14],5 Values Out Of 5 Were Excluded Due To Quiescence Or 0 Apdc
same,FPDc,[2]; [14],55.57
same,FPD measurement,[2]; [8],5 Values Out Of 5 Were Excluded Due To Quiescence Or 0 Apdc
same,FPDc,[2]; [8],48.34
same,FPD measurement,"[2]; 1 µM, concentration (um) 1 uM",5 Values Out Of 5 Were Excluded Due To Quiescence Or 0 Apdc
same,FPDc,"[2]; 1 µM, concentration (um) 1 uM",57.73
same,FPD measurement,[2]; [9],5 Values Out Of 5 Were Excluded Due To Quiescence Or 0 Apdc
same,FPDc,[2]; [9],73.71
same,APDc,[6]; 0.01 µM,51.06
same,FPD measurement,[6]; 0.01 µM,51.06 FPDc
same,APDc,[6]; 0.1 µM,61.45
same,FPD measurement,[6]; 0.1 µM,61.45 FPDc
same,APDc,[6]; 1 µM,63.98
same,FPD measurement,[6]; 1 µM,63.98 FPDc
same,APDc,[6]; 10 µM,78.14
same,FPD measurement,[6]; 10 µM,78.14 FPDc
